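1) Cells in 96-well plates. 2) Compound, 48 h, 5 concentrations. 3) Linear interpolation between surrounding doses. 4) Unreached endpoint = highest concentration. GI50 = concentration required for 50% inhibition of growth.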 Activity calls are given as the source filed them. No stated cut-off is given here; in the data, active = GI50 up to about 1.1 µM and inactive = higher.
Key:
Test in all cases: inhibition of tumour cell growth, NCI panel, 48 h
EKVX = system: EKVX
HCT-15 = system: HCT-15
ACHN = system: ACHN
SN12C = system: SN12C
HL-60 = system: HL-60
NCI-H522 = system: NCI-H522
SF-539 = system: SF-539
UO-31 = system: UO-31
UACC-257 = system: UACC-257
SF-268 = system: SF-268
HCC 2998 = system: HCC 2998
DMS-273 = system: DMS-273
SW-620 = system: SW-620
HT-29 = system: HT-29
KM12 = system: KM12
786-0 = system: 786-0
SK-MEL-28 = system: SK-MEL-28
RXF 393 = system: RXF 393
A498 = system: A498
MDA-MB-231 = system: MDA-MB-231

SMILES	GI50 (EKVX)	GI50 (HCT-15) [µM]	GI50 (ACHN)	GI50 (SN12C)	GI50 (HL-60)	GI50 (NCI-H522)	GI50 (SF-539)	GI50 (UO-31)	GI50 (UACC-257)	GI50 (SF-268)	GI50 (HCC 2998)	GI50 (DMS-273)	GI50 (SW-620)	GI50 (HT-29)	GI50 (KM12)	GI50 (786-0)	GI50 (SK-MEL-28)	GI50 (RXF 393)	GI50 (A498)	GI50 (MDA-MB-231)
N#CCCC(C#N)(C#N)CCC#N	> 100 µM (inactive)	> 100	> 100 µM (inactive)	> 100 µM (inactive)	> 100 µM (inactive)	> 100 µM (inactive)	> 100 µM (inactive)	> 100 µM (inactive)	> 100 µM (inactive)	> 100 µM (inactive)	> 100 µM (inactive)	> 100 µM (inactive)	> 100 µM (inactive)	> 100 µM (inactive)	> 100 µM (inactive)	> 100 µM (inactive)	> 100 µM (inactive)	–	–	–
CC(C)(C)C(=O)C(C(=O)c1ccccc1)C(=O)C(C)(C)C	> 100 µM (inactive)	> 100	> 100 µM (inactive)	> 100 µM (inactive)	> 100 µM (inactive)	> 100 µM (inactive)	> 100 µM (inactive)	> 100 µM (inactive)	> 100 µM (inactive)	> 100 µM (inactive)	> 100 µM (inactive)	–	> 100 µM (inactive)	> 100 µM (inactive)	> 100 µM (inactive)	> 100 µM (inactive)	> 100 µM (inactive)	> 100 µM (inactive)	> 100 µM (inactive)	98.2 µM (inactive)
C=C1CCC2[C@](C)(CCC[C@]2(C)C(=O)O)[C@@H]1CCc1ccoc1 (some centres undefined)	34.3 µM (inactive)	26.8	41.7 µM (inactive)	33.5 µM (inactive)	45.8 µM (inactive)	68.5 µM (inactive)	37 µM (inactive)	36.5 µM (inactive)	29 µM (inactive)	50.4 µM (inactive)	43.8 µM (inactive)	–	53.7 µM (inactive)	24.2 µM (inactive)	18.7 µM (inactive)	48.6 µM (inactive)	61.1 µM (inactive)	36.2 µM (inactive)	47 µM (inactive)	49.2 µM (inactive)
Cc1ccc2c(O)cc(-c3cccs3)nc2n1	57 µM (inactive)	3.78	33 µM (inactive)	19.1 µM (inactive)	2.7 µM (inactive)	4.58 µM (inactive)	8.49 µM (inactive)	8.61 µM (inactive)	> 100 µM (inactive)	49.8 µM (inactive)	12.9 µM (inactive)	–	3.07 µM (inactive)	16.2 µM (inactive)	2.76 µM (inactive)	15.1 µM (inactive)	7.33 µM (inactive)	18.1 µM (inactive)	> 54.8 µM (inactive)	> 72.6 µM (inactive)
COC(=O)c1c(C(=O)OC)c2ccc(-c3ccc(Cl)cc3)nn2c1C(=O)c1ccc([N+](=O)[O-])cc1	27.4 µM (inactive)	25.2	43 µM (inactive)	> 100 µM (inactive)	< 0.01 µM (active)	17.4 µM (inactive)	44.4 µM (inactive)	32.1 µM (inactive)	> 100 µM (inactive)	44.7 µM (inactive)	> 100 µM (inactive)	–	41.5 µM (inactive)	37.2 µM (inactive)	> 100 µM (inactive)	39.4 µM (inactive)	> 100 µM (inactive)	8.83 µM (inactive)	> 100 µM (inactive)	> 100 µM (inactive)
COc1c2c(cc3c1OCO3)[C@]13C=C[C@H](OC)C[C@H]1N(C2)CC3O (some centres undefined)	> 100 µM (inactive)	> 100	> 100 µM (inactive)	> 100 µM (inactive)	> 100 µM (inactive)	> 100 µM (inactive)	> 100 µM (inactive)	> 100 µM (inactive)	> 100 µM (inactive)	> 100 µM (inactive)	> 100 µM (inactive)	–	> 100 µM (inactive)	> 100 µM (inactive)	> 100 µM (inactive)	> 100 µM (inactive)	> 100 µM (inactive)	> 100 µM (inactive)	> 100 µM (inactive)	> 100 µM (inactive)
CO/S(=N/S(=O)(=O)c1ccccc1)c1ccccc1[N+](=O)[O-] (centres undefined)	> 100 µM (inactive)	> 100	> 100 µM (inactive)	> 100 µM (inactive)	–	> 100 µM (inactive)	> 100 µM (inactive)	> 100 µM (inactive)	> 100 µM (inactive)	> 100 µM (inactive)	> 100 µM (inactive)	> 100 µM (inactive)	> 100 µM (inactive)	> 100 µM (inactive)	> 100 µM (inactive)	> 100 µM (inactive)	> 100 µM (inactive)	–	–	–
NS(=O)(=O)c1ccc(/N=N/c2c(O)c(C(=O)O)cc3ccccc23)cc1	> 100 µM (inactive)	> 100	> 100 µM (inactive)	> 100 µM (inactive)	> 100 µM (inactive)	> 76.7 µM (inactive)	> 100 µM (inactive)	> 100 µM (inactive)	> 100 µM (inactive)	> 100 µM (inactive)	> 100 µM (inactive)	–	> 92.3 µM (inactive)	> 100 µM (inactive)	> 75.7 µM (inactive)	> 100 µM (inactive)	> 93.5 µM (inactive)	> 100 µM (inactive)	> 100 µM (inactive)	> 100 µM (inactive)
CC(=O)O[C@@H](C1C[C@@H](C)[C@H]2[C@@](O)(O1)[C@H](O)[C@@]1(C)C3=CC[C@H]4C(C)(C)[C@@H](OC5OCC(O)C(O)C5O)CC[C@@]45C[C@@]35CC[C@]21C)C(C)(C)O (some centres undefined)	24.2 µM (inactive)	28.4	20.8 µM (inactive)	22.8 µM (inactive)	1.56 µM (inactive)	17.8 µM (inactive)	15.7 µM (inactive)	30.2 µM (inactive)	19.7 µM (inactive)	34 µM (inactive)	14.3 µM (inactive)	–	30.2 µM (inactive)	25.8 µM (inactive)	22.5 µM (inactive)	26.1 µM (inactive)	23.2 µM (inactive)	15.9 µM (inactive)	23.8 µM (inactive)	18.3 µM (inactive)
CCOc1cccc(-c2cc(O)c3cc4c(cc3n2)OCO4)c1	10.5 µM (inactive)	0.189	0.51 µM (active)	0.191 µM (active)	0.044 µM (active)	0.0914 µM (active)	0.13 µM (active)	0.339 µM (active)	1.95 µM (inactive)	0.466 µM (active)	0.239 µM (active)	–	0.0573 µM (active)	0.221 µM (active)	0.267 µM (active)	0.197 µM (active)	1.66 µM (inactive)	0.0953 µM (active)	78.9 µM (inactive)	0.243 µM (active)
COc1ccc2c(c1)OC(c1cccnc1)C(c1ccccc1)C2=O (centres undefined)	> 100 µM (inactive)	> 100	> 100 µM (inactive)	> 100 µM (inactive)	> 100 µM (inactive)	> 100 µM (inactive)	> 100 µM (inactive)	> 100 µM (inactive)	> 100 µM (inactive)	61 µM (inactive)	> 100 µM (inactive)	–	> 100 µM (inactive)	> 100 µM (inactive)	> 100 µM (inactive)	86.1 µM (inactive)	> 100 µM (inactive)	> 100 µM (inactive)	> 100 µM (inactive)	> 100 µM (inactive)
